According to article PMC8624133, “10th Trends in Medical Mycology Held on 8 to 11 October 2021, Aberdeen, Scotland, Organized by the European Confederation of Medical Mycology (ECMM)” (Journal of Fungi, 2021):
≈ marks a conversion by molar mass, not a printed value. Where two headings read alike, the source gives them in different places. Starred links: 1 amine or outer side, 2 acyl side, 3 side chain; linkers in the order of their positions; H or OH if unused. Positions of bridges follow the written chain, without caps; N, C: chain ends. Non-standard residues stand in square brackets, D forms with d. Residues, ends and D or L forms follow the SMILES beside them. *: point of attachment. pTerphenylCO(4''-OnC5H11) = CCCCCOc1ccc(-c2ccc(-c3ccc(C(=O)*)cc3)cc2)cc1; Orn(4R-OH,5R-OH) = O=C([C@H](C[C@@H](O)[C@@H](O)N[*:3])N[*:1])[*:2]; hTyr(3S-OH,4S-OH) = N[C@H](C(=O)O)[C@H](O)[C@@H](O)c1ccc(O)cc1; Pro(3S-OH,4S-Me) = C[C@H]1CN[C@H](C(=O)O)[C@H]1O; Hyp = O=C(O)[C@@H]1C[C@@H](O)CN1

How the values were obtained:
[1] = system: Parathyridaria percutanea; assay: In vitro antifungal susceptibility; assay type: cell-based
[2] = system: Rasamsonia argillacea species complex; assay: Antifungal susceptibility testing; assay type: cell-based; conditions: sputum isolate of a CF patient
[3] = system: Phaeoacremonium parasiticum; assay: Antifungal susceptibility testing; assay type: cell-based
Experimental: Results: Cultures for bacteria were sterile. Culture on Sabouraud was positive after 5 days of incubation, showing slow growing and initially white colonies. […] Its identification was performed by sequencing the internal transcribed spacer (ITS) region of ribosomal DNA, being the isolate identified as Phaeoacremonium parasiticum (100% homology).

C. glabrata = assay: ARIA surveillance, CLSI M27 broth microdilution; assay type: cell-based, Candida glabrata; conditions: CLSI M60
Experimental: Materials & Methods: Isolates (n = 730) were collected and re-identified by MALDI-TOF or molecular methods. […] Percentage susceptibility (%S) or wild-type (%WT) were calculated according to CLSI breakpoints (CLSI supplement M60) or epidemiological cut-off values (CLSI supplement M59), respectively.

C. fermentati = assay: EUCAST E. Def 7.3.2 microdilution; assay type: cell-based, Candida fermentati; conditions: n = 2
Aspergillus tubingensis = assay: EUCAST susceptibility; assay type: cell-based; conditions: read-out: MIC
Experimental: The fungus was identified as Aspergillus niger and liposomal amphotericine B was switched to anidulafungin pending susceptibility testing as the patient had pre-existing […] (eGFR CKD-EPI 40 mL/min/1.73 m²). […] Despite increasing the anidulafungin dosage to 200 mg daily and adequate voriconazol levels, serum galactomannan levels remained elevated (index 2.1 at discharge). […] Since no extracardiac sources were found and the patient did well clinically, they were discharched. Anidulafungin was switched to caspofungin to facilitate ongoing IV treatment in the outpatient setting. […] The patient died shortly after. Obduction was not performed.

[4] = system: invasive C. glabrata strains; assay: YeastOne Sensititre colorimetric broth microdilution; assay type: cell-based, Candida glabrata; conditions: Nakaseomyces glabratus
Experimental: Material and Method: Thirty-six clinical isolates of invasive C. glabrata strains were analyzed in this study. Minimum inhibitory concentrations (MICs) were determined using colorimetric broth microdilution (YeastOneSensititre, Trek diagnostics). Genomic DNA was isolated using Qiagen DNA extraction Kit. The FKS1 and FKS2 gene fragment were amplified and PCR products were purified prior to sequencing. Double-strand sequencing of PCR products was performed using Sanger sequencing methodology. Sequences were analyzed with MEGA-6 software to identify specific SNP combination against wild-type sequences of C. glabrata.

Candida auris isolates = assay: microbe, parasite or virus in culture; assay type: cell-based
[5] = system: C. albicans and C. glabrata; assay: FUNGINOS candidemia survey, susceptibility according to CLSI; assay type: cell-based; conditions: share of isolates
C. auris = assay: EUCAST EDef 7.3.1 MIC and checkerboard microdilution; assay type: cell-based, Candida auris
Experimental: Methods: We studied 22 C. auris isolates obtained from different clinical samples from the Hospital La Fe, Valencia, Spain (eight from blood culture, seven from oropharynx and seven from urine cultures). Candida parapsilosis ATCC 22019 and Candida krusei ATCC 6258 were used as quality controls. The minimum inhibitory concentration (MIC) was determined according to the European Committee on Antibiotic Susceptibility Testing (EUCAST) EDef 7.3.1 document. The interaction between citral and the rest of antifungal drugs was assessed by a checkerboard microdilution method. […] The in vitro interaction of the drug combinations was interpreted in terms of the fractional inhibitory concentration index (FICI) as follows: FICI < 1, synergistic; FICI equal to 1, additive; and FICI > 1, indifferent or antagonistic.

C. guilliermondii = assay: EUCAST E. Def 7.3.2 microdilution; assay type: cell-based, Candida guilliermondii; conditions: n = 62
C. glabrata isolates = assay: Rapid XTT assay based on EUCAST E.Def 7.3; assay type: cell-based, Candida glabrata; conditions: […], mean ± SD
[6] = system: C. auris clinical strains; assay: organism not typed; assay type: cell-based, Candida auris; conditions: range, 78 strains from patients with COVID-19
C. albicans = assay: Neutrophil control of hyphal growth (swarming); assay type: cell-based, Candida albicans; conditions: neutrophils of SOT and SCT recipients, ex vivo
Experimental: Methods and Materials: Twenty-one SOT, 19 SCT and 23 healthy control patients (HC) were identified and consented at primary care/outpatient transplant clinics. Transplant recipients were enrolled at a time period two to four months post-transplant. Following consent and peripheral blood collection, neutrophils were freshly isolated and co-incubated with C. albicans and the percent remaining live yeast was measured using a viability dye compared to a standard control to determine fungal elimination by neutrophils. Growth inhibition of C. albicans was also quantified by neutrophil swarming to yeast spotted onto glass slides, assessed by live cell imaging with or without G-CSF. Effect of soluble factors on neutrophils function was determined by incubation of healthy neutrophils with SOT and SCT serum and measuring ability to control C. albicans.

Molecule: CCCCCOc1ccc(-c2ccc(-c3ccc(C(=O)N[C@H]4C[C@@H](O)[C@@H](O)NC(=O)[C@@H]5[C@@H](O)[C@@H](C)CN5C(=O)[C@H]([C@@H](C)O)NC(=O)[C@H]([C@H](O)[C@@H](O)c5ccc(O)cc5)NC(=O)[C@@H]5C[C@@H](O)CN5C(=O)[C@H]([C@@H](C)O)NC4=O)cc3)cc2)cc1 [anidulafungin] ({pTerphenylCO(4''-OnC5H11)}-[Orn(4R-OH,5R-OH)]T[Hyp][hTyr(3S-OH,4S-OH)]T[Pro(3S-OH,4S-Me)]; lactam 1-C)
- in vitro susceptibility category [1]: resistance
- minimal inhibitory concentrations (MIC) [2]: low MIC
- minimal inhibitory concentrations (MIC), in words [3]: higher
- susceptibility (C. glabrata; Italy): 15.8%
- susceptibility (C. glabrata; Panama): 91.7%
- GM (C. fermentati): 0.25 µg/mL
- MIC Range (C. fermentati): 0.25 µg/mL (≈ 0.219 µM)
- MIC (Aspergillus tubingensis): 0.03 µg/mL (≈ 0.0263 µM)
- MIC ([4]; 36 clinical isolates, read-out: median (Min–Max) MIC): 0.06 µg/mL
- MIC ([4]; isolate with FKS2 I661T): 0.06 µg/mL
- categorised as resistant on MIC (Candida auris isolates; CDC guidelines): none
- MIC (Candida auris isolates; Candidozyma auris, […], IQR given, read-out: median MIC): 0.25 µg/mL (≈ 0.219 µM)
- non-susceptibility [5]: 2%
- MIC of anidulafungin in combination with citral (C. auris): 0.016 µg/mL
- MIC (C. auris; Candidozyma auris, 22 clinical isolates): 0.125 µg/mL
- MIC50 (C. guilliermondii; Meyerozyma guilliermondii): 0.25 µg/mL (≈ 0.219 µM)
- MIC90 (C. guilliermondii; Meyerozyma guilliermondii): 0.5 µg/mL (≈ 0.438 µM)
- GM (C. guilliermondii): 0.304 µg/mL
- MIC Range (C. guilliermondii): 0.008 to 1 µg/mL
- XTT-absorbance in drug-treated wells (C. glabrata isolates; drug-free 0.37 ± 0.04): 0.11 ± 0.03
- XTT-absorbance in drug-treated wells (C. glabrata isolates; drug-free 0.39 ± 0.05): 0.25 ± 0.06
- MIC [6]: 0.015 to 8 µg/mL (≈ 0.0132 to 7.02 µM)

B1: G-CSF (protein, UniProt P09919 31-207, looked up)
Granulocyte …: TPLGPASSLPQSFLLKCLEQVRKIQGDGAALQEKLVSECATYKLCHPEELVLLGHSLGIPWAPLSSCPSQALQLAGCLSQLHSGLFLYQGLLQALEGISPELGPTLDTLQLDVADFATTIWQQMEELGMAPALQPTQGAMPAFASAFQRRAGGVLVASHLQSFLEVSYRVLRHLAQP
- neutrophil ability to control hyphal growth (C. albicans): partially restored
